This is an account of results in ChEMBL document CHEMBL1154198, “Chemical genetics of Plasmodium falciparum” (Nature, 2010).

Test [1] concerns Plasmodium falciparum. Kind of test: ST_JUDE: Plasmodium falciparum K1 EC50 (uM) as measured by SYBR green dye. The format is functional, organism-based.
Test [2] has as its system Plasmodium falciparum. Put plainly: ST_JUDE: Plasmodium falciparum 3D7 EC50 (uM) as measured by SYBR green dye. In kind it is functional, organism-based.

Broadly, the EC50 is the concentration giving half of the maximal effect. Higher therefore signals weaker potency. As to `CCOC(=O)C1=CN(Cc2ccc(F)cc2)C=C(C(=O)OCC)C1c1cc(OC)c(OC)c(OC)c1`, the concentration for a half-maximal effect (EC50) in the test on Plasmodium falciparum [1] was 0.521 µM; with Plasmodium falciparum [2], above 15 µM.
As for `COc1cc(/C=C2/C(=O)NC(=O)N(c3ccc(Cl)cc3)C2=O)cc(Br)c1OC`, the EC50 with Plasmodium falciparum [1] and in the test with Plasmodium falciparum [2] was above 15 µM each time.
For `CCOCCCNC(=O)c1cc2c(-c3cccc(OC)c3)nn(C)c2s1`, the EC50 in the test on Plasmodium falciparum [1] and with Plasmodium falciparum [2] was above 15 µM each time.
For `O=C(O)c1ccc(NC2=C(n3nnc4ccccc43)C(=O)c3ccccc3C2=O)cc1`, the EC50 with Plasmodium falciparum [1] was 1.49 µM; in the test with Plasmodium falciparum [2], above 15 µM.
Taken in the same sequence, the figures for `CCCC(=O)NC(c1ccc(Cl)cc1)c1ccc2cccnc2c1O` (configuration not stated) were 2.3 µM and 1.88 µM.
`Cc1cccc(NC2=C(N3CCCCC3)C(=O)c3ccccc3C2=O)c1`: the EC50 in the test on Plasmodium falciparum [1] came to 0.181 µM; with Plasmodium falciparum [2], 0.0527 µM.
Taken in the same sequence, the figures for `CCCOc1ccc(CSC2=NCCN2)cc1[N+](=O)[O-]` were 6.96 µM and 6.86 µM.
Take `CCCCCCn1c(N)c(C(=O)OC)c2nc3ccccc3nc21`: the EC50 in the test on Plasmodium falciparum [1] and with Plasmodium falciparum [2] was above 15 µM each time.
`Cc1cccc(C(=O)NCc2nnc(S)n2-c2cccc(C(F)(F)F)c2)c1`: the EC50 in the test on Plasmodium falciparum [1] and with Plasmodium falciparum [2] was above 15 µM throughout.
As for `Cc1cc(/C=N/n2cnnc2)c(C)n1-c1ccc(Br)cc1`, the EC50 in the test with Plasmodium falciparum [1] and with Plasmodium falciparum [2] was above 15 µM in each case.
Regarding `CCCCC(=O)NC(c1ccc(C(C)C)cc1)c1cc([N+](=O)[O-])c2cccnc2c1O` (configuration not stated), the EC50 was 5.13 µM in the test with Plasmodium falciparum [1] and above 15 µM in the test on Plasmodium falciparum [2].
As for `Cc1cc(C)c2sc(NNC(=O)c3ccc(S(=O)(=O)N(C)C)cc3)nc2c1`, the EC50 in the test on Plasmodium falciparum [1] was found to be 4.89 µM; in the test with Plasmodium falciparum [2] it was 5.94 µM.
Regarding `CCCCCN1CCN(c2nc3c(c(=O)[nH]c(=O)n3C)n2Cc2ccc(C)cc2)CC1`, the EC50 in the test with Plasmodium falciparum [1] and with Plasmodium falciparum [2] was above 15 µM in each case.
In the case of `CCc1ccc(NC(=O)C2c3cc(OC)c(OC)cc3C(=O)N(C)C2c2cccs2)cc1` (configuration not stated), the EC50 worked out at 3.8 µM in the test with Plasmodium falciparum [1] and 3.54 µM with Plasmodium falciparum [2].
For `C=CCn1c(=N)n(CC(O)COc2cccc(C)c2)c2ccccc21` (configuration not stated) the same measures were above 15 µM and 7.13 µM.
For `CCN(CC)CCNC(=O)c1ccc(Cn2c(SCc3ccccc3C)nc3ccncc32)cc1` the same measures were above 15 µM and 6.74 µM.
Take `COc1ccccc1N1CCN(Cc2cc(COC(C)C)c3cccnc3c2O)CC1`: the results for the EC50 with Plasmodium falciparum [1] and in the test on Plasmodium falciparum [2] were above 15 µM and 5.28 µM, respectively.
For `CCOc1ccc(-c2nonc2NC(=O)CC(C)C)cc1OCC` the same measures were 3.78 µM and 3.14 µM.
On to `O=C(Nc1ccccc1-c1ccccc1)C(Cl)(Cl)Cl`, for which the EC50 worked out at 1.15 µM with Plasmodium falciparum [1] and 1.56 µM in the test with Plasmodium falciparum [2].
Consider `Cc1cccc(-n2ccnc2SCC(=O)Nc2cccc(F)c2)c1C`, for which the EC50 with Plasmodium falciparum [1] is 7.99 µM; in the test with Plasmodium falciparum [2] it was above 15 µM.
As to `O=C(Nc1cccc(C(F)(F)F)c1)Nc1ccc(Cl)c(Cl)c1`, the EC50 in the test on Plasmodium falciparum [1] is 0.738 µM; with Plasmodium falciparum [2] it was above 15 µM.
For `CCCN(CCC)CCCNC(=O)c1cc2c(-c3cccc(OC)c3)nn(C)c2s1` the same measures were 7.45 µM and 2.15 µM.
For `CC(C)c1ccc(Nc2c(-c3ccccn3)nc3ccccn23)cc1` the same measures were above 15 µM and above 15 µM.
Turning to `CCS(=O)(=O)c1ccc(OC)c(/N=N/c2ccc(O)c3ncccc23)c1`, the figures for the EC50 in the test with Plasmodium falciparum [1] and in the test with Plasmodium falciparum [2] were above 15 µM and 4.96 µM, respectively.
Consider `O=C(c1ccc(C(F)(F)F)cc1)N(Cc1ccc(OCc2ccc(F)cc2)cc1)Cc1cccnc1`, for which the EC50 with Plasmodium falciparum [1] and in the test with Plasmodium falciparum [2] was above 15 µM in each case.
Consider `Cc1ccc(C)c(C(Nc2ccccn2)c2cc(Cl)c3cccnc3c2O)c1` (configuration not stated), for which the EC50 with Plasmodium falciparum [1] and with Plasmodium falciparum [2] was above 15 µM each time.
`COc1ccc(C(NC(=O)c2cccnc2)c2cc(Cl)c3cccnc3c2O)cc1` (configuration not stated): the EC50 was 1.5 µM in the test with Plasmodium falciparum [1] and 4.76 µM in the test with Plasmodium falciparum [2].
Taken in the same sequence, the figures for `CCOc1ccc2nc(N(Cc3cccnc3)C(=O)c3cccs3)sc2c1` were 7 µM and 6.99 µM.
Taken in the same sequence, the figures for `C=C(C)CNc1nncc(-c2ccccc2C)n1` were above 15 µM and above 15 µM.
Taken in the same sequence, the figures for `COc1ccc2nc(C)cc(Nc3cccc(Cl)c3)c2c1` were 9.41 µM and 1.24 µM.
For the compound `COc1ccc(C2C(C(=O)Nc3cc(OC)ccc3OC)c3ccccc3C(=O)N2C)cc1` (configuration not stated), the EC50 was 6.96 µM in the test on Plasmodium falciparum [1] and above 15 µM in the test with Plasmodium falciparum [2].
As to `Cc1ccc(CN2CCN(Cc3ccc(OCCO)cc3)CC2CCO)o1` (configuration not stated), the EC50 in the test on Plasmodium falciparum [1] and in the test with Plasmodium falciparum [2] was above 15 µM each time.
For `CCCNC(=O)C1CN1Cc1ccc(OC)cc1` (configuration not stated), the EC50 worked out at 6.92 µM in the test on Plasmodium falciparum [1] and 6.81 µM with Plasmodium falciparum [2].
Taken in the same sequence, the figures for `C=CCN1C(=O)c2[nH]nc(-c3c(C)cc(C)cc3O)c2C1c1ccc(OC)cc1` (configuration not stated) were 1.45 µM and 2.07 µM.
`CCOC(=O)C(NC(C)=O)(Nc1ccc(S(=O)(=O)Nc2cc(C)on2)cc1)C(F)(F)F` (configuration not stated): the EC50 in the test with Plasmodium falciparum [1] was determined as 4.56 µM; in the test with Plasmodium falciparum [2], 2.04 µM.
As for `Cc1cc(C)c[n+](C(C)C(=O)c2ccc(-c3ccccc3)cc2)c1` (configuration not stated), the EC50 in the test with Plasmodium falciparum [1] was 2.53 µM; with Plasmodium falciparum [2], 2.86 µM.
In the case of `Cc1ccc(-n2nc(C)c3c(C)c(CCC(=O)Nc4ccc5[nH]c(-c6cccnc6)nc5c4)c(C)nc32)cc1C`, the values for the EC50 in the test with Plasmodium falciparum [1] and with Plasmodium falciparum [2] were 1.04 µM and 0.798 µM, respectively.
As for `COc1ccc(OC)c(C2CC(=O)C3=C(C2)NC(=O)CC3c2ccc(OC)c(OC)c2)c1` (configuration not stated), the EC50 in the test on Plasmodium falciparum [1] was found to be 3.79 µM; in the test on Plasmodium falciparum [2], 2.41 µM.
On to `CC(C)Cn1c2c(c(=N)c3c1CCC3)CCCC2`, for which the EC50 turned out to be 3.78 µM in the test with Plasmodium falciparum [1] and 2.25 µM with Plasmodium falciparum [2].
In the case of `CCN1CCN(CCNC(=O)c2ccc(/C=C3/Sc4ccccc4N(Cc4cccc(Cl)c4)C3=O)cc2)CC1`, the EC50 in the test on Plasmodium falciparum [1] and in the test on Plasmodium falciparum [2] was above 15 µM throughout.
For the compound `CCCCOCCCN1C(=O)CSC1c1cnccc1-c1ccc(Br)cc1` (configuration not stated), the half-maximal effective concentration (EC50) with Plasmodium falciparum [1] turned out to be 1.76 µM; in the test on Plasmodium falciparum [2] it was 2.38 µM.
Regarding `CCc1ccc(OC(C)C(=O)Nc2nccs2)cc1` (configuration not stated), the EC50 in the test on Plasmodium falciparum [1] and in the test on Plasmodium falciparum [2] was above 15 µM each time.
As for `CCOc1cc(-c2nc(-c3ccc(OC)cc3)c(-c3ccccc3)[nH]2)ccc1O`, the EC50 in the test with Plasmodium falciparum [1] came out at 2.25 µM; in the test with Plasmodium falciparum [2], 1.48 µM.
On to `CN(C)CCNC(=O)c1[nH]c2ccccc2c1Sc1ccc(Cl)cc1`, for which the EC50 in the test on Plasmodium falciparum [1] stood at 3.5 µM; in the test on Plasmodium falciparum [2], 4.53 µM.
Regarding `CCc1c(C)nc(-n2nc(C)cc2NC(=O)c2cccc(OC)c2)nc1O`, the EC50 in the test on Plasmodium falciparum [1] and in the test with Plasmodium falciparum [2] was above 15 µM throughout.
As for `CCCCN(C)CCNC(=O)c1cc2c(-c3ccccc3F)nn(C)c2s1`, the results for the EC50 in the test with Plasmodium falciparum [1] and in the test on Plasmodium falciparum [2] were above 15 µM and 1.62 µM, respectively.
Regarding `CCC(=O)C1=C(c2ccc(F)cc2)N(C(=O)CC)n2cnnc2S1`, the EC50 with Plasmodium falciparum [1] and in the test on Plasmodium falciparum [2] was above 15 µM throughout.
For `CCOc1cc(C2CC(=O)NC3=C2C(=O)CC(c2ccc(OC)c(OC)c2)C3)ccc1O` (configuration not stated), the results for the EC50 in the test on Plasmodium falciparum [1] and with Plasmodium falciparum [2] were 0.655 µM and 2.32 µM, respectively.
For the compound `O=C(NCCc1ccncc1)Nc1ccc([N+](=O)[O-])cc1`, the concentration giving a half-maximal response (EC50) in the test on Plasmodium falciparum [1] and in the test on Plasmodium falciparum [2] was above 15 µM in each case.
As for `CN1CCN(c2cc(N3CCN(C)CC3)c([N+](=O)[O-])cc2C2Nc3ccc4ccccc4c3C3=C2C(=O)CC(C)(C)C3)CC1` (configuration not stated), the EC50 with Plasmodium falciparum [1] is above 15 µM; in the test on Plasmodium falciparum [2] it was 3.44 µM.
For `COc1cc(CNc2cc(Cl)ccc2C)cc(I)c1OC` the same measures were 3.17 µM and above 15 µM.
